Data reported in patent publication US12193328B2, “Aromatic compounds and use thereof for formation of molecular layers and fabrication of switching elements for memristive devices” (MERCK PATENT GMBH, priority 2019, dated 2025).
Read-outs that look alike come from different tables or passages of the source.

Test: Comparative solubility test in various solvents
Format: physicochemical
Settings: 1 mM concentration, 23° C., stirred 18 h, visually inspected; for solubility at 18 h: organic solvent or mixture, thermodynamic from solid
Procedure: Comparative Solubility Test
The comparative solubilities of the following Reference Compound 1 (reference from DE102017005884):
[drawing 83] and of Synthesis Example 1 in various solvents at 1 mM concentration at 23° C. are experimentally determined. The sample is stirred for 18 h at 23° C. and then visually inspected. In the table below the expression “soluble” means that after 18 h a clear solution is obtained. “Not soluble” means that remaining solid is observed.

[1] = 1-Methoxy-2-propanol acetate, read-out: Solubility in 1-methoxy-2-propanol acetate
[2] = Cyclohexanone, read-out: Solubility in cyclohexanone

Solubility in chloroform	Solubility in THF	Solubility in toluene (Toluene)	solubility at 18 h [1]	solubility at 18 h [2]	solubility at 18 h (Ethyl acetate, read-out: Solubility in ethyl acetate)	Solubility in 1-methoxy-2-propanol acetate (1-Methoxy-2-propanol acetate)	Solubility in cyclohexanone (Cyclohexanone)	Solubility in ethyl acetate (Ethyl acetate)	solubility at 18 h (Toluene, read-out: Solubility in toluene)	SMILES
Soluble	Soluble	Soluble	< 1000 µM	< 1000 µM	< 1000 µM	–	–	–	–	CCCCCC1CCC(c2ccc(OCCCCCCCCCCCP(=O)(O)O)c(F)c2F)CC1 (centres unmarked) [Reference 1, 11-[2,3-difluoro-4-(4-pentylcyclohexyl)phenoxy]undecylphosphonic acid, reference compound]
Soluble	Soluble	–	> 1000 µM	> 1000 µM	–	Soluble	Soluble	Soluble	< 1000 µM	CCCCC[C@H]1CC[C@H](c2ccc(Oc3c(C)cc(P(=O)(O)O)cc3C)c(F)c2F)CC1 [Synthesis Example 1, [4-[2,3-difluoro-4-(4-pentylcyclohexyl)phenoxy]-3,5-dimethyl-phenyl]phosphonic acid]
